Experimental data published in patent US10238676B2, “Application of ginsenoside RG3 in preparing medicine for preventing and/or treating dementia, and medicine for treating dementia” (priority 2013, dated 2019).

Experiments:
[1] = test system: patients with Alzheimer's disease; assay: Revised Hasegawa dementia scale (HDS-R) scoring of patients with Alzheimer's disease; assay type: in vivo, human
Procedure: Both groups take medicine for 12 continuous weeks. 2 ml of cerebrospinal fluid is collected by lumbar puncture, and is stored at −80° C., the β-amyloid protein (Aβ) content is determined by using enzyme-linked immunosorbent assay (ELISA). A revised Hasegawa dementia scale (HDS-R) is used to score, and the scores before and after treatment are compared, increasing in scores means validness, and unchanging or decreasing in scores means invalidness. The enumeration data adopts χ^2 test, the comparison of measurement data adopts t-test, all data is processed by adopting SPSS12.0 statistical software.
Analysis on the clinical therapeutic effect of the two groups.

[2] = test system: intracerebral cholinergic nerve system of rat model with Alzheimer's disease; assay: AChE positive nerve fiber density of cortex and hippocampal formation, rat model with Alzheimer's disease (D-galactose + IBO); assay type: in vivo, Wistar rats; settings: AD model rats, Huperzine A 0.3 mg/kg/d, 6 weeks
Excerpt: 60 Wistar rats each of which having the body weight of 300-500 g are randomly divided into 6 groups, with 10 in each group, and the groups are named a preliminary elder normal control group, a preliminary elder AD model group, a positive medicine Huperzine A group, and high-dose, medium-dose and low-dose of Ginsenoside Rg3 topical preparation groups according to different treatment methods, respectively. The rats are bred in separate cages, each holding 4-5 rats, with natural lighting and random drinking and feeding provided. Physiological saline is injected in the abdominal cavity and grain of each rat in the preliminary elder normal control group; Galactose intraperitoneal injection and IBO intracerebral injection are given to all rats in the preliminary elder AD model group, the positive medicine Huperzine A group, and the high-dose, medium-dose and low-dose Ginsenoside Rg3 topical preparation groups; while the rats in the Huperzine A group and the high-dose, medium-dose and low-dose of Ginsenoside Rg3 topical preparation groups are subjected to D-galactose injection for modeling, rat of each group is given Huperzine A 0.3 mg/kg/d and Ginsenoside Rg3 10, 5, 2.5 mg/kg/d respectively. Ginsenoside Rg3 is applied to both sides of the nose of each rat of Ginsenoside Rg3 topical preparation groups. All the rats are subjected to the medicines continuously for 6 weeks and then intracerebral bilateral Meynert nuclei injection is carried out. Reference is made to a rat cerebral stereotaxic atlas for Meynert nuclei localization, and localization coordinates are AP-0.8 mm, Late 2.6 mm and DV 8.2 mm During intracerebral injection, a rat is anesthetized with 3% pentobarbital sodium (30 mg/kg) and then immobilized to a cerebral stereotaxic apparatus, physiological saline dissolved IBO (injection 1 μl for each side containing 5 μg of IBO) or 1 μl normal saline is injected slowly into a Meynert nucleus, each side takes injection for 5 minutes, and needle retaining for 10 minutes, wherein all the rats are subjected to cerebral perfusion with 4% paraformaldehyde after modeling and are then immobilized for 24 hours, and the brain is put in a sucrose phosphate buffer until brain tissue blocks sink, the blocks are frozen in a incubator and serially sectioned to […] in thickness. The sections are subjected to acetycholinesterase (AChE) histochemical staining by methods recommended by Hedreen, et al. Observation is given to the frontal lobe, the parietal lobe, the occipital lobe and the entorhinal cortex (layer II) as well as parts in a hippocampal CA1 region of the hippocampal formation such as a stratum oriens, a stratum radiatum, a stratum lacunosum-moleculare and a stratum moleculare of dentate gyrus for observing their AChE positive nerve fiber densities, and the AChE positive nerve fiber densities are counted with a number of intersections of positive fibers with a standard grid by using a micrometer used for a microscope.
A significance level a is equal to 0.05.

rat blood-brain barrier = settings: rats drenched with borneolum syntheticum paraffin oil solution; cited from earlier work
[3] = of 18 patients per group, 12 weeks

For `COc1cc2c(cc1OC)C(=O)C(CC1CCN(Cc3ccccc3)CC1)C2` (centres unmarked) [Donepezil, donepezil, reference compound], the “effective rate (patients increased in HDS-R scores)” value ([1]; 18 AD patients per group, Rg3 oral liquid 10 mg/d or donepezil 5 mg/d, 12 weeks) was 72.2%, the “Scores of clinical symptom (HDS-R), post treatment” value ([1]; AD inpatients, n = 18, Rg3 oral liquid 10 mg/d or donepezil 5 mg/d orally, 12 weeks) was 17.3 ± 9.6 and the “Scores of clinical symptom (HDS-R), before treatment” value ([1]; AD inpatients, n = 18 per group, baseline) was 13.5 ± 4.2^Δ. For the same compound, the “number of patients constant in scores” value [1, 3] was 3, the “number of patients decreased in scores” value [1, 3] was 2 and the “number of patients increased in scores of clinical symptom” value [1, 3] was 13.
With `C/C=C1\[C@H]2C=C(C)C[C@]1(N)c1ccc(=O)[nH]c1C2` [Huperzine, Huperzine A, reference compound] the “N Entorhinal cortex AchE positive nerve fiber density” value [2] was 132.4 ± 19.2^# 10^2 · mm^−2, the “N Frontal lobe AchE positive nerve fiber density” value [2] was 122.1 ± 16.1^## 10^2 · mm^−2 and the “N Occipital lobe AchE positive nerve fiber density” value [2] was 131.6 ± 9.0^Δ 10^2 · mm^−2. For the same compound, the “Parietal lobe AchE positive nerve fiber density” value [2] was 108.7 ± 15.8^##Δ 10^2 · mm^−2, the “N Stratum lacunosum-moleculare AchE positive nerve fiber density” value ([2]; hippocampal formation) was 83.3 ± 9.6 10^2 · mm^−2 and the “N Stratum moleculare of dentate gyrus AchE positive nerve fiber density” value ([2]; hippocampal formation) was 120.0 ± 10.7^# 10^2 · mm^−2. For the same compound, the “N Stratum oriens AchE positive nerve fiber density” value ([2]; hippocampal formation) was 138.7 ± 20.1 10^2 · mm^−2 and the “N Stratum radiatum AchE positive nerve fiber density” value ([2]; hippocampal formation) was 121.1 ± 15.2 10^2 · mm^−2.
In the case of `CC1(C)C2CCC1(C)C(O)C2` (centres unmarked) [borneolum syntheticum], the “time after drench at which tight junction changes start” value (rat blood-brain barrier) is listed as 4 h, the “time at which tight junction changes reach peak” value (rat blood-brain barrier) is listed as 8 h and the “time at which tight junction returns to normal” value (rat blood-brain barrier) is listed as 48 h.
